Laboratory results as given in US20080009545A1, “Anticancer agents” (The Ohio State University Research Foundation, priority 2006, published 2008).

How the values were obtained:
[1] = test system: PrEC cells; assay: MTT cell viability, normal prostate epithelial cells (PrECs); type: cell-based, human; settings: 24 h, Prostate Epithelial Cell Basal Medium with growth supplements
Description: (§1) Cell culture—LNCaP androgen-dependent (p53+/+) and PC-3 androgen-nonresponsive (P53−/−) prostate cancer cells were obtained from the American Type Culture Collection (Manassas, Va.). The preparation of the stable Bcl-xL-overexpressing LNCaP clone B3 (LNCaP/B3) was previously described (18). PC-3, LNCaP, and LNCaP/B3 cells were maintained in RPMI 1640 supplemented with 10% fetal bovine serum (FBS) at 37° C. in a humidified incubator containing 5% carbon dioxide. Normal human prostate epithelial (PrEC) cells were purchased from Cambrex Bio Science Walkersville, Inc. (East Tutherford, N.J.). Cells were maintained in Prostate Epithelial Cell Medium with growth supplements at 37° C. in a humidified incubator containing 5% carbon dioxide. The recommended seeding density for subculture is 2,500 cells/cm^2. It takes 6-9 days from subculture to attain confluency.
Cell viability analysis—The effect of individual test agents on cell viability was assessed by using the MTT assay in 6 to 12 replicates. PC3, LNCaP, and B3-LNCaP cells were seeded and incubated in poly-p-lysine-coated, 96-well, flat-bottomed plates in RPMI 1640 medium supplemented with 10% FBS medium for 24 hours. PrEC cells were seeded at the recommend density in 96-well, flat-bottomed plates in Prostate Epithelial Cell Medium with growth supplements for 3 days. All cells were exposed to various concentrations of test agents dissolved in ethanol (for α-tocopherol, α-tocopheryl succinate, and TS-3) or DMSO (all other test agents used) with a final concentration of 0.1% in serum-free RPMI 1640 medium for PC3, LNCaP, and LNCaP/B3 cells or in Prostate Epithelial Cell Basal Medium with growth supplements for PrEC cells. Controls received DMSO or ethanol vehicle at a concentration equal to that in drug-treated cells. The medium was removed, replaced by 200 μL of 0.5 mM MTT in 10% FBS-containing RPMI 1640 medium, and cells were incubated in the CO2 incubator at 37° C. for 2 h. […] Absorbance at 570 nm was determined on a plate reader.

[2] = target: T1, Bcl-2/Bak interactions (Homo sapiens, UniProt P10415); assay: Co-immunoprecipitation of Bcl-2/Bak in PC-3 cells; type: cell-based
T1 construct: endogenous in cells; host or cells: PC-3 cells
Description: Immunoblotting—Cells were seeded in 10% FBS-containing RPMI-1640 medium for 24 h and treated with various agents as aforementioned. After individual treatments for 24 h, the adherent cells in T-25 or T-75 flasks were scraped, combined with the medium, and centrifuged at 2200 rpm for 10 min. The […] were recovered, placed on ice, and triturated with 20 to 50 μL of a chilled lysis buffer (M-PER Mammalian Protein Extraction Reagent; Pierce, Rockford, Ill.), to which was added 1% protease inhibitor cocktail (set III; EMD Biosciences, Inc., San Diego, Calif.). After a 30-min incubation on ice, the mixture was centrifuged at 16,100×g for 3 min. […]
The pellet was resuspended in ice-cold 0.5 mL of radioimmunoprecipitation assay buffer (50 mM Tris-HCl, pH 7.4, 1% Nonidet P-40, 0.25% sodium deoxycholate, 150 mM NaCl, 1 mM EDTA, and 1% protease inhibitor cocktail) and gently mixed on an orbital shaker at 4° C. for 15 min, followed by centrifugation at 14,000×g for 15 min to yield cell lysates. […] Equal amounts of proteins from these lysates, as determined by the Bradford assay, were mixed with anti-Bcl-2 or anti Bcl-XL antibodies in an orbital shaker at 23° C. for 2 h, followed by 100 μL of protein A-agarose bead slurry at 4° C. for 12 h. […]

[3] = test system: LNCaP cells; assay: MTT cell viability, LNCaP cells; type: cell-based, human; settings: 24-h exposure, serum-free RPMI 1640, MTT, read-out: IC50, proliferation inhibition
Description: as §1
(§2) Cell viability analysis—The effect of individual test agents on cell viability was assessed by using the MTT assay in 6 to 12 replicates. PC3, LNCaP, and B3-LNCaP cells were seeded and incubated in poly-p-lysine-coated, 96-well, flat-bottomed plates in RPMI 1640 medium supplemented with 10% FBS medium for 24 hours. PrEC cells were seeded at the recommend density in 96-well, flat-bottomed plates in Prostate Epithelial Cell Medium with growth supplements for 3 days. […] Absorbance at 570 nm was determined on a plate reader.
(§3) Determination of IC50 values—Data from cell viability and fluorescence polarization assays were analyzed by using the CalcuSyn software (Biosoft, Ferguson, Mo.) to determine IC50 values, in which the calculation was based on the medium-effect equation [i.e., log(fa/fu)=m log(D)−m log(Dm), where fa and fu denote fraction affected and unaffected, respectively; m represents the Hill-type coefficient signifying the sigmoidicity of the dose-effect curve; and D and Dm are the dose used and IC50, respectively.

[4] = test system: PC-3 cells; assay: MTT cell viability, PC-3 cells; type: cell-based, human; settings: 24-h exposure, serum-free RPMI 1640, MTT, read-out: IC50, proliferation inhibition
Description: as §1, §2, §3

[5] = test system: LNCaP/B3 cells; assay: MTT cell viability, Bcl-xL-overexpressing LNCaP (LNCaP/B3) cells; type: cell-based, human; settings: LNCaP/B3 vs LNCaP cells, 24-h exposure; to a degree greater than that of PC-3 cells
Description: as §1, §2

[6] = target: Bcl-2 (Homo sapiens, UniProt P10415); assay: Competitive fluorescence polarization assay, Bak BH3 peptide binding to Bcl-2; settings: Flu-BakBH3, read-out: IC50, disruption of BH3 domain-mediated interactions (Bak BH3 peptide) with Bcl-2
Description: Competitive fluorescence polarization assay—The binding affinity of the test agent to Bcl-XL was analyzed by a competitive fluorescence polarization assay in which the ability of the agent to displace the binding of a Bak BH3-domain peptide to either Bcl-2 or Bcl-XL was determined. Flu-BakBH3, a Bak-BH3 peptide labeled at the NH2 terminus with fluorescein, was purchased from Genemed Synthesis (San Francisco, Calif.). COOH-terminal-truncated, His-tagged Bcl-XL was purchased from EMD Biosciences (San Diego, Calif.) and soluble glutathione S-transferase-fused Bcl-2 was obtained from Santa Cruz Biotechnology. […] Determination of IC50 values—Data from cell viability and fluorescence polarization assays were analyzed by using the CalcuSyn software (Biosoft, Ferguson, Mo.) to determine IC50 values, in which the calculation was based on the medium-effect equation [i.e., log(fa/fu)=m log(D)−m log(Dm), where fa and fu denote fraction affected and unaffected, respectively; m represents the Hill-type coefficient signifying the sigmoidicity of the dose-effect curve; and D and Dm are the dose used and IC50, respectively.

[7] = test system: caspase-9; assay: Caspase-9 activation in PC-3 cells (Western blot); type: cell-based, human; settings: 24 h
Description: (§4) Immunoblotting—Cells were seeded in 10% FBS-containing RPMI-1640 medium for 24 h and treated with various agents as aforementioned. After individual treatments for 24 h, the adherent cells in T-25 or T-75 flasks were scraped, combined with the medium, and centrifuged at 2200 rpm for 10 min. The […] were recovered, placed on ice, and triturated with 20 to 50 μL of a chilled lysis buffer (M-PER Mammalian Protein Extraction Reagent; Pierce, Rockford, Ill.), to which was added 1% protease inhibitor cocktail (set III; EMD Biosciences, Inc., San Diego, Calif.). After a 30-min incubation on ice, the mixture was centrifuged at 16,100×g for 3 min. Two μL of the suspension was taken for protein analysis using the Bradford assay kit (Bio-Rad, Hercules, Calif.); to the remaining solution was added the same volume of 2× SDS-polyacryl-amide gel electrophoresis sample loading buffer (100 mM Tris-HCl, pH 6.8, 4% SDS, 5% β-mercaptoethanol, 20% glycerol, and 0.1% bromphenol blue). The mixture was boiled for 10 min. Equal amounts of proteins were loaded onto 8-12% SDS-polyacrylamide gels. After electrophoresis, protein bands were transferred to nitrocellulose membranes in a semidry transfer cell. […]

[8] = test system: Bcl-xL, Bcl-2, Bax, Bak, Bad, and Bid; assay: Expression of Bcl-2 family members in PC-3 cells (Western blot); type: cell-based, human; settings: 24 h, serum-free RPMI 1640
Description: as §4

T1 sequence (P10415 whole entry): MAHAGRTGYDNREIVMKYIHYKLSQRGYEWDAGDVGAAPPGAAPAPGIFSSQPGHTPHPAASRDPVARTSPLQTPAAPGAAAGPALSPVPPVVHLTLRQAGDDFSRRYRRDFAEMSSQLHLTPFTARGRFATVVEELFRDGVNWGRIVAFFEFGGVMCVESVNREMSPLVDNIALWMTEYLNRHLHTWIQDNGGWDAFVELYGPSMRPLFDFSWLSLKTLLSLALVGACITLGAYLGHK
Sequence of Bcl-2 (P10415 whole entry, species assumed, the tested form may be a part): as the sequence (P10415 whole entry) above

Row | SMILES | antiproliferative effect on normal prostate epithelial cells [1] | intracellular binding of Bak to Bcl-2 ([2]; 10 μM) | IC50 [3] [µM] | IC50 [4] [µM] | resistance to induced cell death by ectopic Bcl-xL expression [5] | IC50 [6] [µM] | level of Bak associated with Bcl-2 ([2]; 40 μM, 12 h, vs DMSO control) | caspase-9 activation [7] | Bad expression [8] | expression level of Bcl-2 members other than Bad (Bcl-xL, Bcl-2, Bax, Bak, Bid) [8]
1 | Cc1c(C)c2c(c(C)c1OC(=O)CCC(=O)O)CCC(C)(CCCC(C)CCCC(C)C)O2 (centres unmarked) [TS-1, succinic acid mono-[2-(4,8-dimethyl-nonyl)-2,5,7,8-tetramethyl-chroman-6-yl]ester] | resistant | abolished | – | – | – | – | – | – | – | –
2 | Cc1c(C)c2c(c(C)c1OC(=O)CCC(=O)O)CC[C@@](C)(CCC[C@H](C)CCC[C@H](C)CCCC(C)C)O2 [α-tocopheryl succinate, reference compound] | resistant | – | 15 | 40 | substantially increased the resistance | 26 ± 2 | significantly reduced | in a dose-dependent manner | decrease | did not cause appreciable changes
